For this test, the system named is phenyl-p-benzoquinone induced writhing in mice. In words: phenyl-p-benzoquinone induced writhing test in mice (antiphenylquinone writhing), oral, with isobologram analysis. In kind it is in vivo, mouse (male CF1). To be noted: 20 min; for ED50: read-out: ED50 dose; for % mice blocked: oral. As for the experimental part: The phenyl-p-benzoquinone induced writhing test in mice [H. Blumberg et al., Proc. Soc. […] The method simply consists of reading the % ED50 DOSE for each dose ratio on the best fit regression analysis curve from the mouse isobologram, multiplying each component by its effective species dose, and then forming the ratio of the amount of nalbuphine to zomepirac. […] [E. W. Pelikan, The Pharmacologist, 1, 73 (1959).]
All solutions are prepared fresh daily.
Each mouse is used only once, then discarded.
In order to study the interaction between nalbuphine and zomepirac, 6 precise dosage ratios of nalbuphine hydrochloride and zomepirac are selected.
The nature of the analgetic interaction (addition, synergism, or antagonism) is determined by graphing the results in a Loewe isobologram [S. Loewe, Pharm. Rev. 9:237-242, (1957)]. The isobologram is a quantitative method for measuring interactions between drugs where dose-effect relationships are depicted in a multi-dimensional array with lines connecting dose pairs that are equieffective in relationship to a common pharmacological endpoint. In this instance, the antiphenylquinone writhing test is used to estimate a common level of analgesic activity (ED50 dose) for the two component drugs separately and for each fixed dose-ratio combination.
If such substitution increases the response, the mixing together of the compounds is said to potentiate their effects and synergism exists.
Consider ED50 doses of mixtures of X units of compound B with Y units of compound A, whose ED50 doses are β and α, respectively. Given the hypothesis of additivity, all doses of mixtures satisfying the straight line relation,
will be ED50 doses. To test the hypothesis of additivity, ED50 doses of mixtures are estimated through probit analysis of data from experiments run at various ratios of A to B. Linear and curvilinear regression models are fitted to the data to estimate the amounts of A in respective ED50 doses, given the amount of B, (or, conversely, the amount of B, given A).
The regression is fitted to the data by the method of least squares. Residual squared deviations about the line of best fit are minimized in directions along lines from the origin through respective data points on the isobologram, these lines making angles with X-axis, tan^-1 (Y/X). This is accomplished by a transformation prior to the […] analysis. Its inverse is applied to transform the coordinates of the regression curve back to the X,Y coordinates of the isobologram.
A statistically significant regression will refute the hypothesis.
The method of least squares utilizes jointly the information contained in all of the separate data points. Statistical significance of the curvilinearity of the regression model establishes the existence of synergism (or antagonism) of the compounds in the biological system studied. The parameters in the model describe its intensity over the range of mixture ratios, from 0 to 1, the nature of which is seen readily when the regression is plotted on the isobologram.

Where two headings read alike, the source gives them in different places.

Take `Oc1ccc2c3c1O[C@H]1[C@@H](O)CC[C@@]4(O)[C@@H](C2)N(CC2CCC2)CC[C@]314` [Nalbuphine, (-)-17-(cyclobutylmethyl)-4,5α-epoxymorphinan-3,6α,14-triol]: for the setting “Mus musculus, po”, the ED50 worked out at 12 mg/kg. Besides, the “% mice blocked” value (nalbuphine HCl 2.75 + zomepirac sodium 0 mg/kg) stood at 15.6%; the “% mice blocked” value (nalbuphine HCl 5.5 + zomepirac sodium 0 mg/kg) amounted to 24.4%; the “% mice blocked” value (nalbuphine HCl 11 + zomepirac sodium 0 mg/kg) turned out to be 62.2%; the “% mice blocked” value (nalbuphine HCl 22 + zomepirac sodium 0 mg/kg) worked out at 68.9%; the “% mice blocked” value (nalbuphine HCl 44 + zomepirac sodium 0 mg/kg) turned out to be 84.4%.
Regarding `Cc1cc(CC(=O)O)n(C)c1C(=O)c1ccc(Cl)cc1` [Zomepirac Sodium, 5-(4-chlorobenzoyl)-1,4-dimethyl-1H-pyrrole-2-acetic acid], the ED50 (drug alone, twenty minutes post oral dosing, mouse antiphenylquinone writhing test) came to 1.66 mg/kg. Further, the “% mice blocked” value (nalbuphine HCl 0 + zomepirac sodium 0.29 mg/kg) stood at 13.3%, the “% mice blocked” value (nalbuphine HCl 0 + zomepirac sodium 0.58 mg/kg) was 20.0%, the “% mice blocked” value (nalbuphine HCl 0 + zomepirac sodium 1.16 mg/kg) came to 31.1% and the “% mice blocked” value (nalbuphine HCl 0 + zomepirac sodium 2.32 mg/kg) stood at 75.6%.

The record behind these values is US4407805A, “Analgesic mixture of nalbuphine and zomepirac” (E. I. Du Pont de Nemours and Company, priority 1982, dated 1983).
